Experimental findings from the NIST ThermoML archive (doi:10.1021/je060314n) are described below.

± gives the expanded uncertainty stated by the source.

The conditions of data set [1]: Liquid; for mass density: 298.15 K, 101.33 kPa, Vibrating tube method.
The nature of data set [2]: refractive index (Na D-line) (dimensionless). Particulars: 298.15 K; 101.33 kPa; Liquid; Standard Abbe refractometry.

For the molecule `CCCCOC(=O)CC` [butyl propanoate], the mass density in data set [1] amounted to 870.88 ± 0.23 kg/m3. Also, in data set [1] (418.69 K), the “vapor or sublimation pressure” value came out at 101.3 ± 2 kPa. The refractive index in data set [2] worked out at 1.3992 ± 0.0005.
For `CCCOCCC` [dipropyl ether], the mass density in data set [1] is recorded as 741.81 ± 0.16 kg/m3. The “vapor or sublimation pressure” value in data set [1] (363.16 K) is on record as 101.3 ± 2 kPa. For the same molecule, the refractive index in data set [2] is 1.3784 ± 0.0005.
Take `CCCO` [propan-1-ol]: in data set [1], the mass density stood at 799.62 ± 0.14 kg/m3. In data set [1] (369.75 K), the “vapor or sublimation pressure” value worked out at 101.3 ± 2 kPa. Further, the refractive index in data set [2] turned out to be 1.3836 ± 0.0005.
